In data set [1] the target is T1, µOR (Homo sapiens, UniProt P35372). As to the kind of experiment: Competition radioligand binding, [3H]DAMGO. The method, then: (§1) Next, 100 µL of membrane suspension containing 7 µg protein was added to the agonist wells and incubated for 90 min at room temperature. The reaction mixture was then filtered over a GF-B filter plate (Perkin Elmer) followed by four quick washes with ice-cold 50 mM Tris HCl. The plate was dried overnight, after which 50 µL scintillation fluid (Ultimagold uLLT) was added and radioactivity was counted on a Packard TopCount NXT scintillation counter. All working solutions were prepared in a radioligand assay buffer containing 50 mM Tris HCl, 10 mM MgCl2, and 1 mM ethylenediaminetetraacetic acid at pH 7.4.
T1 sequence (P35372 whole entry): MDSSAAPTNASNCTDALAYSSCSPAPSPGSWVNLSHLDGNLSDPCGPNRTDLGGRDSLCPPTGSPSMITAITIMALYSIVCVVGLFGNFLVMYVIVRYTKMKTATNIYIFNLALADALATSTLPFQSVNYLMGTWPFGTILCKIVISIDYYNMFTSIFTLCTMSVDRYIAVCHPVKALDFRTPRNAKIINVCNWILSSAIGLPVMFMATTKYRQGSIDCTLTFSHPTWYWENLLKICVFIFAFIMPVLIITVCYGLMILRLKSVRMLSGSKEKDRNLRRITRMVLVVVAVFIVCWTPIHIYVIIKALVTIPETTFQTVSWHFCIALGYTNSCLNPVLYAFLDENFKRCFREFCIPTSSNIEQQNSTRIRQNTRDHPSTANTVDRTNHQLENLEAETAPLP

Data set [2] deals with T2, FLAG-mouse δOR (Mus musculus, UniProt P32300).
T2 construct: FLAG; expressed in transfected cells; host or cells: HEK 293
T2 sequence (P32300 whole entry): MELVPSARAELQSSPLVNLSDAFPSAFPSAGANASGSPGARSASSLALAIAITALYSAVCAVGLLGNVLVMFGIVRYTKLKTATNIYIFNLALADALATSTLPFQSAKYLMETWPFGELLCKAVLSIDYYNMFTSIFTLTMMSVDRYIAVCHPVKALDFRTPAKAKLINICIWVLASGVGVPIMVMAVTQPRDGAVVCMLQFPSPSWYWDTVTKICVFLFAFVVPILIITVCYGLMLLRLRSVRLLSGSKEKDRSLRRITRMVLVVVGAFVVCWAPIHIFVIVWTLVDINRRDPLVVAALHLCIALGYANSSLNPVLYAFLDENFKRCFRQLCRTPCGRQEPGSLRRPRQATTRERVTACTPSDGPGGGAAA
As to the kind of experiment: cAMP GloSensor inhibition assay in HEK 293 cells. As to conditions: for IC50: HEK 293, forskolin 30 µM, read-out: cAMP IC50 (nM) δOR; for G Protein Selectivity (δOR vs µOR): cAMP potency δOR vs µOR. In kind it is cell-based.
Protocol: (§2) In brief, for cAMP inhibition assays HEK 293 (Life Technologies, Grand Island, NY, USA) cells were transiently transfected in a 1:3 ratio with FLAG-mouse δOR, or HA-mouse µOR and pGloSensor22F-cAMP plasmids (Promega, Madison, WI, USA) using Xtremegene9 (Sigma). Two days post-transfection cells (20,000 cells/well, 7.5 µL) were seeded in low volume Greiner 384-well plates (#82051-458, VWR, Batavia, IL, USA) and were incubated with Glosensor reagent (Promega, 7.5 µL, 2% final concentration) for 90 min at room temperature. […] For β-arrestin recruitment assays, CHO-human µOR PathHunter β-arrestin 2 cells or CHO-human δOR PathHunter β-arrestin 2 cells (DiscoverX, Fremont, CA, USA) were plated (2,500 cells/well, 10 µL) one day prior to stimulation with 2.5 µL drug solution for 90 min at 37 °C/5% CO2, after which cells were incubated with 6 µL cell PathHunter assay buffer (DiscoverX) for 60 min at room temperature as per the manufacturer’s protocol. Luminescence for each of these assays was measured using a FlexStation3 plate reader (Molecular Devices, Sunnyvale, CA, USA).
(§3) All data are presented as means ± standard error of the mean, and analysis was performed using GraphPad Prism 8 software (GraphPad Software, La Jolla, CA). For in vitro assays, nonlinear regression was conducted to determine pIC50 (cAMP) or pEC50 (β-arrestin 2 recruitment). […] The averages of each independent run were counted as a single experiment and combined to provide a composite curve in favor of providing a ‘representative’ curve. In each experimental run, a positive control/reference compound was utilized to allow the data to be normalized and to calculate the log bias value. A minimum of three independent values were obtained for each compound in each of the cellular assays.

Data set [3] concerns the target T3, HA-mouse µOR (Mus musculus, UniProt P42866).
T3 construct: HA; expressed in transfected cells; host or cells: HEK 293
The experiment in a line: cAMP GloSensor inhibition assay in HEK 293 cells. In kind it is cell-based. As to conditions: for IC50: HEK 293, forskolin 30 µM, read-out: cAMP IC50 (nM) µOR.
Protocol: as §2, §3

For data set [4], the target named is T1, µOR. As to the kind of experiment: cell-based. In kind it is cell-based.
Protocol: as §2, §3
Data set [5] can be described thus: Rat plasma stability. As to conditions: for Degradation Products (First Appearance): rat plasma, UPLC-mass spectrometry, time of first appearance in parentheses; for half-life: rat, plasma. The method, then:
Peptides were synthesized using an Aapptec Focus XC automated peptide synthesizer coupled with a heating system using a solid phase peptide synthesis protocol using Fmoc chemistry. Preparative RP-HPLC was performed using an appropriate column and solvent system (described below) and final purity of peptides was determined by UV area % from UPLC analysis. Peptides were purified by Teledyne ISCO EZ Prep system on RediSep® C18 Prep column (30 × 250 mm, 100 Å). […] Plasma stability was also assessed using the above UPLC column and solvent gradient program using a Waters H class Plus Acquity UPLC system coupled with a QDa detector using protocol B.
Sprague Dawley rat plasma containing K2-ethylenediaminetetraacetic acid (Innovative Research, MI, USA) was transferred into 300 µL aliquots and stored at −20 °C until use. […] After adding analog, an aliquot of the mixture was removed at each indicated time point (0, 5, 10, 15, 20, 30, 60, 120, 240 min) and immediately quenched with 100 μL of a methanol solution containing 20 μM Fmoc-Leu-OH as an internal standard. […] Then, the filtrate was transferred into vials and a 5 μL sample of the resulting solution was analyzed on an UPLC system coupled with a QDa detector. […] Determination of half-life (t1/2) was carried out by using the GraphPad Prism one-phase decay method.

In data set [6] the target is T1, µOR. The experiment in a line: Bias factor calculation (operational model, cAMP vs β-arrestin 2). As to conditions: DAMGO as reference; >1 = more G protein-biased; listed as 1i (NO2).
Protocol: Bias factors were calculated using the operational model equation in Prism 8 to calculate Log R (τ/KA) (Table S2) as previously described [12]. […] A bias factor > 1 meant that the agonist was more G protein-biased than the reference compound; A bias factor < 1 meant that the agonist was less G protein-biased than the reference compound.
In data set [7] the target is T4, δOR (Homo sapiens, UniProt P41143). The experiment in a line: Competition radioligand binding, [3H]DPDPE. As to conditions: for Binding Selectivity (δOR vs µOR): ratio of Ki values. The method, then: as §1
T4 sequence (P41143 whole entry): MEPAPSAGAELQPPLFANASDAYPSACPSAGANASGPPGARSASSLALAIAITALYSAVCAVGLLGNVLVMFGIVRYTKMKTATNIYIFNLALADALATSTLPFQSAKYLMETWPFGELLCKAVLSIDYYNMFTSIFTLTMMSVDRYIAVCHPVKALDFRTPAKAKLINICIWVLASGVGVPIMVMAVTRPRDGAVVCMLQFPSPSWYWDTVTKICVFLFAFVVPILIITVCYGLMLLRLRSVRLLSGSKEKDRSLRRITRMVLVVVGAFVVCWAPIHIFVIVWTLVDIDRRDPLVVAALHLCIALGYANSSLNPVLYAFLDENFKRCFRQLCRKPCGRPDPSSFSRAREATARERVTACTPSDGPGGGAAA
In data set [8] the target is T4, δOR. As to the kind of experiment: PathHunter β-arrestin 2 recruitment assay in CHO cells.
Protocol: as §2, §3
For data set [9], the target named is T4, δOR. As to conditions: at best; cited from earlier work.
Data set [10] deals with T4, δOR. As to conditions: cited from earlier work.
The target of data set [11] is T4, δOR. As to conditions: literature value; cited from earlier work.
In data set [12] the target is T4, δOR. As to conditions: cited from earlier work. This is another data set of the same source.
Data set [13] has as its target T1, µOR. As to conditions: BRET (β-arrestin 2) and EPAC (cAMP) assays; footnote prints reference 26; cited from earlier work.
Setting [14] is: CHO PathHunter, read-out: β-Arrestin 2 EC50 (nM) µOR.

These results are taken from PMC6943441, “The Meta-Position of Phe^4 in Leu-Enkephalin Regulates Potency, Selectivity, Functional Activity, and Signaling Bias at the Delta and Mu Opioid Receptors” (Molecules, 2019).

Like-named read-outs stand apart in the source and are kept apart here. Square brackets hold non-standard residues; d marks the D form. Peptide text beside a SMILES is read from it. 2Pal = N[C@@H](Cc1ccccn1)C(=O)O; 3Pal = N[C@@H](Cc1cccnc1)C(=O)O; 4Pal = N[C@@H](Cc1ccncc1)C(=O)O

T3 sequence (P42866 whole entry): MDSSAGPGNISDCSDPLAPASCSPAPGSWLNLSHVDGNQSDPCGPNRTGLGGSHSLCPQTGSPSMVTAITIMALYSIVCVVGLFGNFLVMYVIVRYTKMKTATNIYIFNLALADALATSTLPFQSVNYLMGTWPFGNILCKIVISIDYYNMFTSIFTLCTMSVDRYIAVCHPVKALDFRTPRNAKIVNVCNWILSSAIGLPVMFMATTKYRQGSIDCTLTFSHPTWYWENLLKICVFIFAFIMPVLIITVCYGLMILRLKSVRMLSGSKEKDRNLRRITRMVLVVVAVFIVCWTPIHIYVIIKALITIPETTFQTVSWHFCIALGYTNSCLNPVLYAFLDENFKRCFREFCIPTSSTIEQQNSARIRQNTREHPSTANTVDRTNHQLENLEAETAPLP

As usually defined, the Ki is the dissociation constant of the complex between target and ligand, obtained from inhibition or displacement. Read a low Ki as tighter binding. By IC50 is commonly meant the concentration that inhibits the measured activity by half. The EC50 is the concentration needed to bring the measured effect to its halfway point. By half-life is commonly meant the time in which the quantity being followed falls by half. In turn, `CC(C)C[C@H](NC(=O)[C@H](Cc1cccc([N+](=O)[O-])c1)NC(=O)CNC(=O)CNC(=O)[C@@H](N)Cc1ccc(O)cc1)C(=O)O` [Compound 1i] came in with a Ki in data set [1] of 0.98 nM. In addition, the IC50 in data set [2] was determined as 0.47 nM. In addition, the “LogR (δOR) cAMP” value in data set [2] (operational model Log R (τ/KA)) is reported as 9.0. The “cAMP δOR Efficacy (%+SD)” value in [2] (relative to Leu-enkephalin = 100) is 99 ± 6%. Besides, the concentration for half-maximal inhibition (IC50) in [3] is 49 nM. Further, the “LogR (µOR) cAMP” value in data set [3] (operational model Log R (τ/KA)) is 7.2. Further, in data set [4], the midpoint of the response, the EC50, lay at 537 nM; the “LogR (µOR) β-arr2” value is given as 5.3; the “β-Arrestin 2 µOR Efficacy (% + SEM)” value came to 60 ± 6%. In addition, in [5], the “Degradation Products (First Appearance)” value is recorded as “Gly-Gly-(meta-NO2)Phe-Leu (5 min) (meta- NO2)Phe-Leu (20 min)” and the half-life stood at 28.8 min. The “Bias Factor µOR (DG = Ref)” value in [6] is listed as 11.1.

Turning to `CC(C)C[C@H](NC(=O)[C@H](Cc1ccccn1)NC(=O)CNC(=O)CNC(=O)[C@@H](N)Cc1ccc(O)cc1)C(=O)O` [Compound 1j] (H-YGG[2Pal]L-OH; N-terminus and C-terminus assumed), in data set [7], the inhibition constant (Ki) turned out to be 6.17 nM and the “Binding Selectivity (δOR vs µOR)” value was 1.5. In data set [1], the inhibition constant (Ki) is 9.12 nM. For the same compound, in [2], the IC50 amounted to 4.57 nM and the “G Protein Selectivity (δOR vs µOR)” value worked out at 8.9. Also, the IC50 in data set [3] was found to be 40.7 nM. Moreover, the EC50 in data set [4] (setting [14]) worked out at 1350 nM. Moreover, in [5], the “Degradation Products (First Appearance)” value is “(2-pyridyl)Ala-Leu (5 min) Gly-Gly-(2-pyridyl)Ala-Leu (30 min)” and the half-life is 26.8 min. Moreover, the EC50 in [8] was 100 nM.

Consider `CC(C)C[C@H](NC(=O)[C@H](Cc1cccnc1)NC(=O)CNC(=O)CNC(=O)[C@@H](N)Cc1ccc(O)cc1)C(=O)O` [Compound 1k] (H-YGG[3Pal]L-OH; N-terminus and C-terminus assumed), for which, in [7], the Ki was determined as 33.1 nM and the “Binding Selectivity (δOR vs µOR)” value is 4.8. In [1], this compound returned a Ki of 158 nM. Moreover, in [2], the IC50 was 47.9 nM and the “G Protein Selectivity (δOR vs µOR)” value is on record as 4.9. In [3], the IC50 was 234 nM. The EC50 in data set [4] (setting [14]) was found to be 41700 nM. In addition, in data set [5], the “Degradation Products (First Appearance)” value is reported as “(3-pyridyl)Ala-Leu (10 min) Gly-Gly-(3-pyridyl)Ala-Leu (20 min)” and the half-life stood at 54 min. The same compound showed an EC50 in [8] of 1120 nM.

With `CC(C)C[C@H](NC(=O)[C@H](Cc1ccncc1)NC(=O)CNC(=O)CNC(=O)[C@@H](N)Cc1ccc(O)cc1)C(=O)O` [Compound 1l] (H-YGG[4Pal]L-OH; N-terminus and C-terminus assumed), the values for the Ki in data set [7] and in data set [1] were 20.4 nM and 38.9 nM, respectively. Also, the “Binding Selectivity (δOR vs µOR)” value in [7] was 1.9. Further, the IC50 amounted to 30.2 nM in data set [2] and 302 nM in data set [3]. In addition, the “G Protein Selectivity (δOR vs µOR)” value in data set [2] was 10. The EC50 in data set [4] (setting [14]) was found to be 37200 nM; in data set [8] it was 398 nM. Besides, the “Degradation Products (First Appearance)” value in data set [5] is listed as “(4-pyridyl)Ala-Leu (10 min) Gly-Gly-(4-pyridyl)Ala-Leu (30 min)”. The compound further had a half-life in data set [5] of 78.1 min.

As for Dmt-Tic-Gly-NH-Ph, in data set [9], the “selectivity for δORs over µORs” value is given as ≤ 10 fold.

Regarding aza-β-homoleucine-enkephalin, the “β-arrestin 2 efficacy” value in data set [10] was 64%. In addition, the “G Protein Selectivity (δOR vs µOR)” value in data set [11] is 9.9 [23]. Further, the “Bias Factor δOR” value in data set [12] (BRET (β-arrestin 2) and EPAC (cAMP) assays, footnote prints reference 26) is recorded as 5.2; in data set [12] (BRET (β-arrestin 2) and EPAC (cAMP) assays, footnote prints reference 26, listed as Aza-β-homoleucine) it was 5.2 ^¶. The “Bias Factor µOR (LE = Ref)” value in data set [13] is 1.2. For the same compound, in data set [9], the “selectivity for δORs over µORs” value was ≤ 10 fold.

On to rubiscolin-6, for which the “β-arrestin 2 efficacy” value in [10] is reported as 20%. Besides, the “Bias Factor δOR” value in data set [12] (literature value) is recorded as 2.0.
